Test results: patent publication US20210395313A1, “PEPTIDE PAC1 ANTAGONISTS” (AMGEN INC., priority 2017, published 2021)
Where a SMILES comes first, the peptide text is derived from it. Bridges are numbered along the chain shown (N, C = ends). Where no end group is shown, it is not given here.

Legend:
[1] = target: T1, human PAC1 receptor (Homo sapiens, UniProt P41586); assay: LANCE Ultra cAMP accumulation antagonist assay in SHSY-5Y cells; format: cell-based;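 also: inhibition of cAMP accumulation evoked by PAC1 agonist at its EC80 in SHSY-5Y cells endogenously expressing receptor, 30 min preincubation then 15 min agonist, TR-FRET readout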
T1 construct: SHSY-5Y (human neuroblastoma cell line) and RG-2 (rat glioma cell line) cells endogenously express human and rat PAC1 receptors, respectively; endogenous in cells; host or cells: SHSY-5Y human neuroblastoma cells
T1 sequence (P41586 21-468): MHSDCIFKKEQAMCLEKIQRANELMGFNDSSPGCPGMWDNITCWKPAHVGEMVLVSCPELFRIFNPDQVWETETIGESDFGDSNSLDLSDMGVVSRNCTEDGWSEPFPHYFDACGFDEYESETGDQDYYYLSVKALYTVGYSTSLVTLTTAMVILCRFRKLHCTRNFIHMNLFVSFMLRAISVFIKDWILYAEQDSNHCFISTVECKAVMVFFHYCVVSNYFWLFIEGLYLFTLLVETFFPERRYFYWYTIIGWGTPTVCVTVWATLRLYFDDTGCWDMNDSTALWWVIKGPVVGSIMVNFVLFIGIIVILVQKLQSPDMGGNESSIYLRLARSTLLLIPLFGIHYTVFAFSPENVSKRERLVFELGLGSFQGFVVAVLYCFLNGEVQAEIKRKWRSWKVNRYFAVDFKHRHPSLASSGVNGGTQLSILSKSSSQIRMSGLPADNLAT
Method: In order to determine the potency of peptide antagonists at the PAC1 receptor, functional cAMP accumulation assays using LANCE Ultra cAMP assay kit to measure the agonist and antagonist activity of PAC1 peptides were used. SHSY-5Y (human neuroblastoma cell line) and RG-2 (rat glioma cell line) cells endogenously express human and rat PAC1 receptors, respectively. Agonist activity of PAC1 peptides was tested by incubating with SHSY-5Y at 2,000 cells per well or RG-2 at 5,000 cells per well for 15 minutes at room temperature. PAC1 receptor agonist PACAP38 or maxadilan was included as a positive control. The reaction was stopped by adding detection mixture, europium (Eu) chelate-labeled cAMP tracer and cAMP-specific monoclonal antibodies labeled with the ULight™ dye, to all wells followed by a 60-minute incubation at room temperature. The assay plates were then read on an EnVision instrument at an emission wavelength of 665 and 615 nm and data were analyzed using Genedata Screener or GraphPad Prism software. A similar procedure was used in the antagonist assays by using a fixed concentration of PAC1 agonist. The concentrations of agonists were chosen based on their ECK) values at PAC1 receptors in SHSY-5Y or RG-2 cells. SHSY-5Y or RG-2 cells were added into 96-well half-area white plates. Serially diluted PAC1 peptides at ten concentrations were added and incubated for 30 minutes at room temperature. PAC1 agonist at EC80 concentration was then added and further incubated for 15 minutes at room temperature. The reaction was stopped by adding detection mixture to all wells followed by a 60-minute incubation at room temperature. The assay plates were read and analyzed the same way as that of agonist assay. Cells, agonists, and PAC1 peptides were prepared in freshly made assay buffer (F-12, 0.5 mM IBMX, 0.1 or 0.4% BSA (pH 7.4)). Detection mixture was made by mixing a 1/50 dilution of the Eu-cAMP tracer stock solution in cAMP Detection Buffer and a 1/150 dilution of the ULight-anti-cAMP stock solution in cAMP Detection Buffer. Europium (Eu) chelate-labeled cAMP tracer, cAMP-specific monoclonal antibodies labeled with the ULight™ dye, BSA, and detection buffer were provided in LANCE Ultra cAMP Kit from PerkinElmer

[2] = target: T2, rat PAC1 receptor (Rattus norvegicus, UniProt P32215); assay: LANCE Ultra cAMP accumulation antagonist assay in RG-2 cells; format: cell-based;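 also: RG-2 rat glioma cells endogenously expressing PAC1, test peptide preincubated 30 min, then PAC1 agonist added at its EC80 for 15 min, cAMP accumulation read by LANCE Ultra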
T2 construct: SHSY-5Y (human neuroblastoma cell line) and RG-2 (rat glioma cell line) cells endogenously express human and rat PAC1 receptors, respectively; endogenous in cells; host or cells: RG-2 rat glioma cells
T2 sequence (P32215 20-523): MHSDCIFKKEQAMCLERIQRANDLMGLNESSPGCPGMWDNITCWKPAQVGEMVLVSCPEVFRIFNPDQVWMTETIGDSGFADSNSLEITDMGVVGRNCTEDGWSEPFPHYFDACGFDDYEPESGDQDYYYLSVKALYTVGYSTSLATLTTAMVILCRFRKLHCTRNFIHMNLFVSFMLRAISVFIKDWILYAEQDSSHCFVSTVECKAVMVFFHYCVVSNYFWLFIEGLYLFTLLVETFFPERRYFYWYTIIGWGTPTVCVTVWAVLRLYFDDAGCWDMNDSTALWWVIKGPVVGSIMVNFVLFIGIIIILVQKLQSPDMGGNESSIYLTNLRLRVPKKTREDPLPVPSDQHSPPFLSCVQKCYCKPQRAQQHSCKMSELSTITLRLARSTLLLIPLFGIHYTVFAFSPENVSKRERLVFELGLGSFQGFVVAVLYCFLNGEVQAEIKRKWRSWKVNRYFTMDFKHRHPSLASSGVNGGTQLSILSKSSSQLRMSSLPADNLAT

[3] = target: T3, PAC1 (Rattus norvegicus, UniProt P32215); assay: Rat maxadilan-induced increase in blood flow (MIIBF) PD model, laser Doppler imaging; format: in vivo
T3 construct: Naive male Sprague Dawley® rats aged 8-12 weeks at the time of the study were purchased from Charles River Laboratories; tissue Charles River Laboratories; host or cells: live male Sprague Dawley rats; dermal blood flow on abdominal skin
T3 sequence (P32215 20-523): T2 sequence (P32215 20-523)
Method: PAC1 peptide antagonists were also evaluated in an in vivo pharmacodynamic model—a model of maxadilan-induced increase in blood flow.
Naive male Sprague Dawley® rats aged 8-12 weeks at the time of the study were purchased from Charles River Laboratories. Animals were group-housed in non-sterile, ventilated micro-isolator housing in Amgen Assessment and Accreditation of Laboratory Animal Committee (AAALAC)-accredited facility. Animals had ad libitum access to pelleted feed (Harlan Teklad 2020X, Indianapolis, IN) and water (on-site generated reverse osmosis) via automatic watering system.
All PAC1 peptides were tested in a rat maxadilan-induced increase in blood flow (MIIBF) pharmacodynamic (PD) model with a laser Doppler imaging. A dosing solution of maxadilan (Bachem, H6734.0500) was prepared fresh daily by diluted maxadilan stock solution (0.5 mg/mL) in 1× PBS to the final concentration of 0.5 μg/mL. All tested peptides were prepared in 1× PBS at different concentrations depend on the dose required for the experiment and given in a single bolus i.v. or s.c. injection. A laser Doppler imager (LDI-2, Moor Instruments, Ltd, Wilmington, Del.) was used to measure dermal blood flow (DBF) on the shaved skin of the rat abdomen with a low-power laser beam generated by a 633 nm helium-neon bulb. The measurement resolution was 0.2 to 2 mm, with scanning distances between the instrument aperture and the tissue surface of 30 cm. In this report, DBF was measured and expressed as % change from baseline [100×(individual post-CAP flux-individual baseline flux)/individual baseline flux] and further calculated to % Inhibition to quantify the magnitude of drug effect [Mean of vehicle % change from BL−individual drug treated rat % change from BL)/Mean of vehicle % change from BL].
On the test day, following anesthetization with propofol, the rat's abdominal area was shaved and each animal was placed in a supine position on a temperature-controlled circulating warm-water pad to maintain a stable body temperature during the study. After a 10 to 15 minute stabilization period, a rubber O-ring (0.925 cm inner diameter, O-Rings West, Seattle, Wash.) was placed on the rat abdomen without directly positioning it over a visible blood vessel while the rat placed in a supine position on a temperature-controlled circulating warm-water pad to maintain a stable body temperature during the study. After placement of an O-ring on the selected area, a baseline (BL) DBF measurement was taken. After the BL scan, PAC1 peptides were administrated either 5 min for i.v., or 15 min for s.c. then followed by 20 μL (in 0.5 μg/mL) intradermal injection of maxadilan at the center of the O-ring. The post-maxadilan DBF was measured at 30 min and the post peptides time was 35 min for i.v. and 45 min for s.c. respectively. The O-ring serves as an area of interest in which the DBF will be analyzed within the O-ring.
All DBF results were expressed as the mean±SEM. A one-way ANOVA followed by Dunnett's Multiple Comparison Test (MCT) was used to assess the statistical significance of PAC1 peptides effects relative to the vehicle within the study. A p<0.05 was used to determine significance between any two groups.

## CC[C@H](C)[C@H](NC(=O)[C@H](C)NC(=O)[C@H](CCCCN)NC(=O)[C@H](CCCNC(=N)N)NC(=O)[C@H](Cc1ccccc1)NC(=O)[C@H](CCC(N)=O)NC(=O)[C@@H]1CSSC[C@H](N)C(=O)N[C@@H](CC(=O)O)C(=O)N[C@@H](C)C(=O)N[C@@H]([C@@H](C)O)C(=O)N1)C(=O)N[C@@H](CC(=O)O)C(=O)N[C@@H](CC(=O)O)C(=O)N[C@H]1CSSC[C@@H](C(=O)N[C@@H](CCSC)C(=O)N[C@@H](CCCCN)C(=O)N[C@@H](CCC(N)=O)C(=O)N[C@@H](CCCCN)C(=O)N[C@@H](CCCCN)C(=O)N[C@@H](CCCCN)C(=O)N[C@@H](CCC(=O)O)C(=O)N[C@@H](Cc2c[nH]c3ccccc23)C(=O)N[C@@H](CCCCN)C(=O)N[C@@H](C)C(=O)NCC(N)=O)NC(=O)[C@H](C)NC(=O)[C@H](CCCCN)NC(=O)[C@H](Cc2ccccc2)NC(=O)[C@H](C(C)C)NC(=O)[C@H](CO)NC(=O)[C@H](CO)NC(=O)[C@H](Cc2c[nH]cn2)NC(=O)[C@H](Cc2ccc(O)cc2)NC(=O)[C@H](C)NC(=O)[C@H](CCC(N)=O)NC(=O)[C@H](CCCNC(=N)N)NC(=O)[C@H](C)NC1=O [SEQ ID NO 65] (H-CDATCQFRKAIDDCARQAYHSSVFKACMKQKKKEWKAG-NH2; disulfide 1-5, 14-27)
[1]
  IC50: 0.01 to 1 nM
[2]
  IC50: 0.01 to 1 nM
[3]; single bolus s.c., lowest dose of 0.3 mg/kg, 15 min prior to maxadilan, 45 min post peptide treatment
  inhibition of maxadilan-induced increase in DBF: statistically significant inhibition

## CC[C@H](C)[C@H](NC(=O)[C@H](C)NC(=O)[C@H](CCCCN)NC(=O)[C@H](CCCNC(=N)N)NC(=O)[C@H](Cc1ccccc1)NC(=O)[C@H](CCC(N)=O)NC(=O)[C@@H]1CSSC[C@H](N)C(=O)N[C@@H](CC(=O)O)C(=O)N[C@@H](C)C(=O)N[C@@H]([C@@H](C)O)C(=O)N1)C(=O)N[C@@H](CC(=O)O)C(=O)N[C@@H](CC(=O)O)C(=O)N[C@H]1CSSC[C@@H](C(=O)N[C@@H](CCSC)C(=O)N[C@@H](CCCCN)C(=O)N[C@@H](CCC(N)=O)C(=O)N[C@@H](CCCCN)C(=O)N[C@@H](CCCCN)C(=O)N[C@@H](CCCCN)C(=O)N[C@@H](CCC(=O)O)C(=O)N[C@@H](Cc2ccccc2)C(=O)N[C@@H](CCCCN)C(=O)N[C@@H](C)C(=O)NCC(N)=O)NC(=O)[C@H](C)NC(=O)[C@H](CCCCN)NC(=O)[C@H](Cc2ccccc2)NC(=O)[C@H](C(C)C)NC(=O)[C@H](CO)NC(=O)CNC(=O)[C@@H]2CCCN2C(=O)[C@H](C(C)C)NC(=O)[C@H](CC(N)=O)NC(=O)[C@H](CO)NC(=O)[C@H](Cc2c[nH]cn2)NC(=O)[C@H](Cc2c[nH]cn2)NC(=O)[C@H](C)NC(=O)[C@H](CCC(N)=O)NC(=O)[C@H](CCCCN)NC(=O)[C@H](CCC(N)=O)NC1=O [SEQ ID NO 233]
[1]
  IC50: 1 to 100 nM
[2]
  IC50: 0.01 to 1 nM
[3]; single bolus i.v., lowest dose of 0.1 mg/kg, 5 min prior to maxadilan, 35 min post peptide treatment
  inhibition of MIIBF (dermal blood flow): statistically significant inhibition

## CDATCQFRKAIDDCYYRSWHANVPGSVFKACMKQKKKEWKAG-NH2 (disulfide 1-5, 14-31) [compound 60]
[1]
  IC50: 0.01 to 1 nM
[2]
  IC50: 0.01 to 1 nM

## CDATCQFRKAIDDCYYRSWHANVPGSVFKACMKQKKKEWKAGN (disulfide 1-5, 14-31) [compound 62]
[1]
  IC50: 1 to 100 nM
[2]
  IC50: 0.01 to 1 nM

## CDATCQFRKAIDDCYYRSWHANVPGSVFKACMKQKKKEWKAGY (disulfide 1-5, 14-31) [compound 66]
[1]
  IC50: 0.01 to 1 nM
[2]
  IC50: 0.01 to 1 nM

## CDATCQFRKAIDDCYYRSWHSNVPGSVFKACMKFRFNVWKAG-NH2 (disulfide 1-5, 14-31) [compound 67]
[1]
  IC50: 1 to 100 nM
[2]
  IC50: 0.01 to 1 nM

## CDATCQFRKAIDDCYYRSWHSNVPGSVFKACMKQKKKEFKAG (disulfide 1-5, 14-31) [compound 64]
[1]
  IC50: 1 to 100 nM
[2]
  IC50: 0.01 to 1 nM

## CDATCQFRKAIDDCYYRSWHSNVPGSVFKACMKQKKKEFKAG-NH2 (disulfide 1-5, 14-31) [compound 149]
[1]
  IC50: 0.01 to 1 nM
[2]
  IC50: 0.01 to 1 nM

## CDATCQFRKAIDDCYYRSWHSNVPGSVFKACMKQRKKRWLAG-NH2 (disulfide 1-5, 14-31) [compound 69]
[1]
  IC50: 0.01 to 1 nM
[2]
  IC50: 0.01 to 1 nM

## CDATCQFRKAIDDCYYYAMHSNVPGSVWKACLKQKKKEFKAG-NH2 (disulfide 1-5, 14-31) [compound 78]
[1]
  IC50: 0.01 to 1 nM
[2]
  IC50: 0.01 to 1 nM

## CDATCQFRKAIDDCYYYAMHSNVPGSVWKACMKQKKKEFKAG-NH2 (disulfide 1-5, 14-31) [compound 150]
[1]
  IC50: 0.01 to 1 nM
[2]
  IC50: 0.01 to 1 nM

## CDATCQFRKAIDECAKQAHHSNVPGSVFKACMKQKKKEFKAG-NH2 (disulfide 1-5, 14-31) [compound 12]
[1]
  IC50: 0.01 to 1 nM
[2]
  IC50: < 0.01 nM

## CDATCQFRKAIDECARQAHHSNVPGSVFKACMKQKKKEWKAGH (disulfide 1-5, 14-31) [compound 25]
[1]
  IC50: 0.01 to 1 nM
[2]
  IC50: < 0.01 nM

## CDATCQYRKGLVACLYKKVAMQKRYSVFKACMKQKKKEFKAG-NH2 (disulfide 1-5, 14-31) [compound 46]
[1]
  IC50: 1 to 100 nM
[2]
  IC50: 0.01 to 1 nM

## CEATCQFRKAIDDCARQAHHSNVPGSVFKACMKQKKKEWKAGH (disulfide 1-5, 14-31) [compound 11]
[1]
  IC50: 0.01 to 1 nM
[2]
  IC50: 0.01 to 1 nM

## GCDATCQFRKAIDDCAKQAHHSNVPGSVFKACMKQKKKEFKAGH (disulfide 2-6, 15-32) [compound 59]
[1]
  IC50: 0.01 to 1 nM
[2]
  IC50: 0.01 to 1 nM

## GCDATCQFRKAIDDCAKQAHHSNVPGSVFKACMKQKKKEFKAGY (disulfide 2-6, 15-32) [SEQ ID NO 58]
[1]
  IC50: 0.01 to 1 nM
[2]
  IC50: 0.01 to 1 nM

## SDATSQYRKGLVACLYKKVAMQKRYSVFKACMKQKKKEWKAG-NH2 (disulfide 14-31) [compound 426]
[1]
  IC50: 1 to 100 nM
[2]
  IC50: 0.01 to 1 nM
